Measured values from patent publication US20050032873A1, “3-Amino chroman and 2-amino tetralin derivatives” (Wyeth, priority 2003, published 2005).
pEC50, pIC50, pKi: −log10 of the molar value. Where two headings read alike, the source gives them in different places.

Experiments:
serotonin transporter = molecular target: T1, serotonin transporter (Rattus norvegicus, UniProt P31652); assay: 5-HT transporter affinity: displacement of 3H-paroxetine from male rat cortical membranes; type: binding; conditions: for pKi: displacement of 3H-paroxetine, male rat cortical membranes, read-out: 5-HT Transporter Affinity Ki
T1 construct: displace ^3H-paroxetine from male rat cortical membranes; from tissue; host or cells: male rat cortical membranes
T1 sequence (P31652 whole entry): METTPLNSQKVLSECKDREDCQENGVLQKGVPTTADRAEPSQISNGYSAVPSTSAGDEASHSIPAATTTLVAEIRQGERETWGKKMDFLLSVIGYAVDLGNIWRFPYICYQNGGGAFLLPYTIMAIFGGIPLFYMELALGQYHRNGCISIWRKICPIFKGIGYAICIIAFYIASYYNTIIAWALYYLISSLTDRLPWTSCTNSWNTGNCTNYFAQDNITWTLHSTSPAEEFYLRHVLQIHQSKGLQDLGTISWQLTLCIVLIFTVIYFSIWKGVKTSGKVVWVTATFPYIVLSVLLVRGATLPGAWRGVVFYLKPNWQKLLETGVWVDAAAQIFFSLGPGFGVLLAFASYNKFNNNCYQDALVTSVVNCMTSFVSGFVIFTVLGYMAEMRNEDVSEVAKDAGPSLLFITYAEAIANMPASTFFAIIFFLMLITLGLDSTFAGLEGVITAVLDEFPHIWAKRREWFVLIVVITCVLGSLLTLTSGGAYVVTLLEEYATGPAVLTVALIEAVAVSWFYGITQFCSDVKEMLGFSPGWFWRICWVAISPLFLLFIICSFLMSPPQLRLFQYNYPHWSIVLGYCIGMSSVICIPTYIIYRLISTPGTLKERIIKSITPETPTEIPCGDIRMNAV

[1] = molecular target: T2, cloned human 5-HT1A receptors (Homo sapiens, UniProt P08908); assay: 35S-GTPγS binding assay, 5-HT1A function; type: biochemical; conditions: for pEC50: agonist potency; for pIC50: antagonist potency, reversal of 8-OH-DPAT, read-out: 5-HT1A Function GTPγS IC50
T2 construct: expressed in transfected cells
T2 sequence (P08908 1-422): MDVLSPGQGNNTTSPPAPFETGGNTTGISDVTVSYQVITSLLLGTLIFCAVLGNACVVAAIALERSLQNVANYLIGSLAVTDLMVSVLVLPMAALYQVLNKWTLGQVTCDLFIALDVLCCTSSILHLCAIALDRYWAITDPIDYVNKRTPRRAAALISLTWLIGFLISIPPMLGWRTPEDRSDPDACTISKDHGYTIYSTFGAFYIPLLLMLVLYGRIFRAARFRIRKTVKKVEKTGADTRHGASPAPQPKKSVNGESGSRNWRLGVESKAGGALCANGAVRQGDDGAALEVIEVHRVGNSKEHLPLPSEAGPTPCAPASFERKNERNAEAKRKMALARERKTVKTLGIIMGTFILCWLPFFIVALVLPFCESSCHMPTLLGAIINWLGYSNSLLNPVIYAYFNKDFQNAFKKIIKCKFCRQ
Description: (§1) The agonist or antagonist activity at 5-HT1A receptors was established by using two different assays. […] Agonists produce an increase in binding whereas antagonists produce no increase but rather reverse the effects of the standard agonist 8-OH-DPAT. The test compound's maximum stimulatory effect is represented as the Emax, while its potency is defined by the EC50. The test compound's maximum inhibitory effect is represented as the Imax, while its potency is defined by the IC50. The second assay measured cAMP accumulation upon binding of the ligand to the 5-HT1A receptor. […] The test compound's maximum stimulatory or inhibitory effect is represented as the Emax while its potency is defined by either IC50 for an antagonist or EC50 for an agonist. [^3H]-8-OH-DPAT was used to determine maximum agonist or antagonist response in both functional assays.

5-HT1A receptor [2] = molecular target: T3, 5-HT1A receptor (Homo sapiens, UniProt P08908); assay: cAMP accumulation assay, 5-HT1A function; type: cell-based; conditions: for pEC50: cells marked EC50 (agonist); for Emax: in brackets after EC50 or IC50, read-out: 5-HT1A Function cAMP (Emax); for pIC50: cells marked IC50 (antagonist), read-out: 5-HT1A Function cAMP IC50
T3 sequence (P08908 1-422): T2 sequence (P08908 1-422)
Description: as §1

5-HT1A receptor [3] = molecular target: T3, 5-HT1A receptor; assay: 5-HT1A receptor affinity: displacement of [3H] 8-OH-DPAT; type: binding; parameters: expressed in transfected cells; conditions: displacement of [3H] 8-OH-DPAT; CHO cells stably transfected with human 5-HT1A receptors; read-out: 5-HT1A Receptor Affinity Ki
[4] = maximum inhibitory effect, in brackets after IC50, read-out: 5-HT1A Function GTPγS (Imax)
[5] = maximum stimulatory effect, in brackets after EC50, read-out: 5-HT1A Function GTPγS (Emax)

5-HT Transporter Affinity, % @ 1 μM (serotonin transporter; @ 1 μM) | pEC50 [1] | pIC50 [1] | Emax [1, 4] | Emax [1, 5] | pEC50 (5-HT1A receptor [2]) | Emax (5-HT1A receptor [2]) | pKi (5-HT1A receptor [3]) | pKi (serotonin transporter) | SMILES | pIC50 (5-HT1A receptor [2])
53% @ 1 μM | 7.27 | 6.95 | 42% | 47% | 8.60 | 99% | 9.21 | – | CCCN(CCCc1c[nH]c2ccc(OC)cc12)C1COc2c(F)ccc(C(N)=O)c2C1 (centres unmarked) [Compound 106, 8-fluoro-3-[[3-(5-methoxy-1H-indol-3-yl)propyl](propyl)amino]chromane-5-carboxamide] | –
– | – | 7.03 | 100% | – | – | 0% | 8.93 | 6.05 | COc1ccc2[nH]cc(CCCN(CC3CC3)C3COc4c(F)ccc(C(N)=O)c4C3)c2c1 (centres unmarked) [Compound 108, 3-{(cyclopropylmethyl)[3-(5-methoxy-1H-indol-3-yl)propyl]amino}-8-fluorochromane-5-carboxamide] | 7.34
– | 6.61 | 6.71 | 59% | 61% | 7.44 | 75% | 8.19 | 8.34 | CCN(CCCc1c[nH]c2c(Cl)cccc12)C1COc2c(F)ccc(C(N)=O)c2C1 (centres unmarked) [Compound 110, 3-[[3-(7-chloro-1H-indol-3-yl)propyl](ethyl)amino]-8-fluorochromane-5-carboxamide] | –
– | – | 6.62 | 100% | – | – | 0% | 9.13 | 7.21 | NC(=O)c1ccc(F)c2c1CC(N(CCCc1c[nH]c3c(Cl)cccc13)CC1CC1)CO2 (centres unmarked) [Compound 112, 3-[[3-(7-chloro-1H-indol-3-yl)propyl](cyclopropylmethyl)amino]-8-fluorochromane-5-carboxamide] | 7.25
– | 7.06 | – | – | 56% | 7.80 | 91% | 8.69 | 7.29 | CCCN(CCCc1c[nH]c2c(Cl)cccc12)C1COc2c(F)ccc(C(N)=O)c2C1 (centres unmarked) [Compound 113, 3-[[3-(7-chloro-1H-indol-3-yl)propyl](propyl)amino]-8-fluorochromane-5-carboxamide] | –
– | 5.88 | – | – | 64% | 6.61 | 67.5% | 7.01 | 7.16 | NC(=O)c1ccc(F)c2c1CC(NCCCc1c[nH]c3ccc(Cl)cc13)CO2 (centres unmarked) [Compound 114, 3-{[3-(5-chloro-1H-indol-3-yl)propyl]amino}-8-fluorochromane-5-carboxamide] | –
– | 7.28 | 5.70 | 72% | 38% | 7.34 | 77% | 8.22 | 7.67 | CCN(CCCc1c[nH]c2ccc(Cl)cc12)C1COc2c(F)ccc(C(N)=O)c2C1 (centres unmarked) [Compound 115, 3-[[3-(5-chloro-1H-indol-3-yl)propyl](ethyl)amino]-8-fluorochromane-5-carboxamide] | –
– | 7.21 | 6.07 | 45% | 50% | 8.11 | 80% | 8.84 | 6.82 | CCCN(CCCc1c[nH]c2ccc(Cl)cc12)C1COc2c(F)ccc(C(N)=O)c2C1 (centres unmarked) [Compound 116, 3-[[3-(5-chloro-1H-indol-3-yl)propyl](propyl)amino]-8-fluorochromane-5-carboxamide] | –
– | – | 6.87 | 69% | – | – | 0% | 8.83 | 7.38 | NC(=O)c1ccc(F)c2c1CC(N(CCCc1c[nH]c3ccc(Cl)cc13)CC1CC1)CO2 (centres unmarked) [Compound 118, 3-[[3-(5-chloro-1H-indol-3-yl)propyl](cyclopropylmethyl)amino]-8-fluorochromane-5-carboxamide] | 6.77
– | 5.55 | – | – | 63% | 6.44 | 64% | 7.06 | 8.17 | NC(=O)c1ccc(F)c2c1OCC(N(CCCCc1c[nH]c3ccc(F)cc13)CC1CC1)C2 (centres unmarked) [Compound 125, 3-{(cyclopropylmethyl)[4-(5-fluoro-1H-indol-3-yl)butyl]amino}-5-fluorochromane-8-carboxamide] | –
– | 5.89 | – | – | 50% | 6.11 | 81.5% | 6.49 | 8.00 | CCN(CCCCc1c[nH]c2ccc(F)cc12)C1COc2c(C(N)=O)ccc(F)c2C1 (centres unmarked) [Compound 127, 3-{ethyl[4-(5-fluoro-1H-indol-3-yl)butyl]amino}-5-fluorochromane-8-carboxamide] | –
– | 5.03 | – | – | 100% | 6.15 | 75.5% | 6.77 | 8.17 | CCCN(CCCc1c[nH]c2c(F)cc(F)cc12)C1COc2c(C(N)=O)ccc(F)c2C1 (centres unmarked) [Compound 129, 3-[[3-(5,7-difluoro-1H-indol-3-yl)propyl](propyl)amino]-5-fluorochromane-8-carboxamide] | –
– | 6.10 | – | – | 39% | 7.83 | 72% | 7.13 | 6.78 | NC(=O)c1ccc(F)c2c1OCC(N(CCCc1c[nH]c3c(F)cc(F)cc13)CC1CC1)C2 (centres unmarked) [Compound 130, 3-{(cyclopropylmethyl)[3-(5,7-difluoro-1H-indol-3-yl)propyl]amino}-5-fluorochromane-8-carboxamide] | –
– | 5.65 | – | – | 98% | 6.95 | 63% | 7.02 | 7.30 | CCN(CCCc1c[nH]c2c(F)cc(F)cc12)C1COc2c(C(N)=O)ccc(F)c2C1 (centres unmarked) [Compound 132, 3-[[3-(5,7-difluoro-1H-indol-3-yl)propyl](ethyl)amino]-5-fluorochromane-8-carboxamide] | –
– | 5.30 | – | – | 60% | 6.89 | 53% | 7.29 | 7.55 | NC(=O)c1cccc2c1C[C@H](NCCCc1c[nH]c3ccc(F)cc13)CO2 [Compound 133a, (3S)-3-{[3-(5-fluoro-1H-indol-3-yl)propyl]amino}chromane-5-carboxamide] | –
– | 6.36 | – | – | 100% | 6.56 | 98% | 7.70 | 7.24 | COC(=O)c1cccc2c1CC(NCCCc1c[nH]c3c(F)cc(F)cc13)CO2 (centres unmarked) [Compound 135, Methyl 3-{[3-(5,7-difluoro-1H-indol-3-yl)propyl]amino}chromane-5-carboxylate] | –
– | 5.88 | – | – | 95% | 6.20 | 89% | 7.56 | 6.69 | COC(=O)c1cccc2c1CC(N(CCCc1c[nH]c3c(F)cc(F)cc13)C1CCC1)CO2 (centres unmarked) [Compound 136, Methyl 3-{cyclobutyl[3-(5,7-difluoro-1H-indol-3-yl)propyl]amino}chromane-5-carboxylate] | –
– | 5.86 | – | – | 100% | 6.28 | 91% | 7.50 | 8.36 | O=C(NC1CCC1)c1cccc2c1CC(N(CCCc1c[nH]c3c(F)cc(F)cc13)C1CCC1)CO2 (centres unmarked) [Compound 143, N-cyclobutyl-3-{cyclobutyl[3-(5,7-difluoro-1H-indol-3-yl)propyl]amino}chromane-5-carboxamide] | –
– | 5.12 | – | – | 73% | 5.30 | 100% | 6.77 | 8.26 | O=C(NCC1CC1)c1cccc2c1CC(N(CCCc1c[nH]c3c(F)cc(F)cc13)C1CCC1)CO2 (centres unmarked) [Compound 144, 3-{cyclobutyl[3-(5,7-difluoro-1H-indol-3-yl)propyl]amino}-N-(cyclopropylmethyl)chromane-5-carboxamide] | –

SMILES | 5-HT Transporter Affinity, % @ 1 μM (serotonin transporter; @ 1 μM) | pEC50 [1] | pIC50 [1] | Emax [1, 4] | Emax [1, 5] | pEC50 (5-HT1A receptor [2]) | Emax (5-HT1A receptor [2]) | pKi (5-HT1A receptor [3]) | pKi (serotonin transporter) | pIC50 (5-HT1A receptor [2])
COc1ccc2[nH]cc(CCCN(C3CCC3)C3COc4c(F)ccc(C(N)=O)c4C3)c2c1 (centres unmarked) [Compound 107, 3-{cyclobutyl[3-(5-methoxy-1H-indol-3-yl)propyl]amino}-8-fluorochromane-5-carboxamide] | – | – | 6.60 | 100% | – | – | 0% | 8.92 | 6.08 | 7.35
NC(=O)c1ccc(F)c2c1CC(N(CCCc1c[nH]c3c(Cl)cccc13)C1CCC1)CO2 (centres unmarked) [Compound 111, 3-[[3-(7-chloro-1H-indol-3-yl)propyl](cyclobutyl)amino]-8-fluorochromane-5-carboxamide] | – | – | 5.80 | 100% | – | – | 0% | 7.58 | 7.18 | 5.97
NC(=O)c1ccc(F)c2c1CC(N(CCCc1c[nH]c3ccc(Cl)cc13)C1CCC1)CO2 (centres unmarked) [Compound 117, 3-[[3-(5-chloro-1H-indol-3-yl)propyl](cyclobutyl)amino]-8-fluorochromane-5-carboxamide] | – | – | 6.13 | 100% | – | – | 0% | 8.40 | 7.12 | 6.57
